4 molecules from ChEMBL document CHEMBL1201862, “PubChem BioAssay data set” (2004) can be followed below.

SMILES strings stand for the structures. Calls of active or inactive are those of the source. Where only a bound is given, the exact number is not on record here.

Test [1] in a line: enhancers of respiration in Yfh1-depleted yeast, dose response, Friedreich's ataxia, plus single-dose screen (AID 1465).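 Also: yeast depleted of Yfh1p frataxin homolog grown on glycerol needing respiration; WST-1 tetrazolium dye reduction as measure of cellular dehydrogenase metabolic activity.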 It counts as functional.
Test [2] addresses T1, Rac GTPase-activating protein 1 (Homo sapiens, UniProt Q9H0H5).
T1 sequence (Q9H0H5 whole entry): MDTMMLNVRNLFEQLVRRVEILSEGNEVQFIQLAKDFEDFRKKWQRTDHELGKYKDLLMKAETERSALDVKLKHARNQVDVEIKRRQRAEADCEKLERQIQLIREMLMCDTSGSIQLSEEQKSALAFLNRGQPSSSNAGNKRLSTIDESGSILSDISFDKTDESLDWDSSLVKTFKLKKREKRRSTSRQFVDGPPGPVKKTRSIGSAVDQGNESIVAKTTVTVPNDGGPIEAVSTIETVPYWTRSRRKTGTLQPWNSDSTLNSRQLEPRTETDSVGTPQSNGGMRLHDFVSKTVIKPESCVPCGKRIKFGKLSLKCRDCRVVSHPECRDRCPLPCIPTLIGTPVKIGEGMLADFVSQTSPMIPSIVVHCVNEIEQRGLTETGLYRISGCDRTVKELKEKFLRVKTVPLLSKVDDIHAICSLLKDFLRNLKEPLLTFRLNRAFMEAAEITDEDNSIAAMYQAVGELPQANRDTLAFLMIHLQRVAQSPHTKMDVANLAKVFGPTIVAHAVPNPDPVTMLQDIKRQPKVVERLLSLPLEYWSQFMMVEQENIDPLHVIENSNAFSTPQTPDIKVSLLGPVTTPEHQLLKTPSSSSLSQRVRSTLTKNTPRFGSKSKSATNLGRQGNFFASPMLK
As to the kind of experiment: MgcRacGAP GTPase-activating activity inhibitors, confirmation, biochemical, ADP Hunter fluorescence, primary and confirmatory (AID 624330). It counts as functional.

In the next test the target is T2, Protein skinhead-1 (Caenorhabditis elegans, UniProt P34707).
T2 sequence (P34707 whole entry): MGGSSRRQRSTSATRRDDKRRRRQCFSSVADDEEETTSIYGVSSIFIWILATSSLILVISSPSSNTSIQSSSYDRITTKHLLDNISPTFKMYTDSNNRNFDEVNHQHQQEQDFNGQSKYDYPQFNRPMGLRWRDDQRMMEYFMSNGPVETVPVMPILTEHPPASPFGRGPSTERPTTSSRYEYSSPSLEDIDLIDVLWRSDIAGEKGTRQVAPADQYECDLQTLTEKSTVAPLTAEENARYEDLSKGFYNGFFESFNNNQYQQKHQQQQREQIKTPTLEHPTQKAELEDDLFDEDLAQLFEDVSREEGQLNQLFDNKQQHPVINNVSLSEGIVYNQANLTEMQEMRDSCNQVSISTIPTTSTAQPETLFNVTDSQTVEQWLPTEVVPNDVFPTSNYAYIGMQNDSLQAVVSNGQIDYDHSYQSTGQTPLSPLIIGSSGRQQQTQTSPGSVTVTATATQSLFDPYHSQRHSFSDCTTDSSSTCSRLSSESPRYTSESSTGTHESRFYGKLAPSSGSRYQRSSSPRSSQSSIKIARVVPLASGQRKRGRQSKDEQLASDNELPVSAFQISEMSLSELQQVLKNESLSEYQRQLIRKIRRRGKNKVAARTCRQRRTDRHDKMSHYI
It counts as functional.

For another test, the target named is T3, Insulin-degrading enzyme (Homo sapiens, UniProt P14735).
T3 sequence (P14735 whole entry): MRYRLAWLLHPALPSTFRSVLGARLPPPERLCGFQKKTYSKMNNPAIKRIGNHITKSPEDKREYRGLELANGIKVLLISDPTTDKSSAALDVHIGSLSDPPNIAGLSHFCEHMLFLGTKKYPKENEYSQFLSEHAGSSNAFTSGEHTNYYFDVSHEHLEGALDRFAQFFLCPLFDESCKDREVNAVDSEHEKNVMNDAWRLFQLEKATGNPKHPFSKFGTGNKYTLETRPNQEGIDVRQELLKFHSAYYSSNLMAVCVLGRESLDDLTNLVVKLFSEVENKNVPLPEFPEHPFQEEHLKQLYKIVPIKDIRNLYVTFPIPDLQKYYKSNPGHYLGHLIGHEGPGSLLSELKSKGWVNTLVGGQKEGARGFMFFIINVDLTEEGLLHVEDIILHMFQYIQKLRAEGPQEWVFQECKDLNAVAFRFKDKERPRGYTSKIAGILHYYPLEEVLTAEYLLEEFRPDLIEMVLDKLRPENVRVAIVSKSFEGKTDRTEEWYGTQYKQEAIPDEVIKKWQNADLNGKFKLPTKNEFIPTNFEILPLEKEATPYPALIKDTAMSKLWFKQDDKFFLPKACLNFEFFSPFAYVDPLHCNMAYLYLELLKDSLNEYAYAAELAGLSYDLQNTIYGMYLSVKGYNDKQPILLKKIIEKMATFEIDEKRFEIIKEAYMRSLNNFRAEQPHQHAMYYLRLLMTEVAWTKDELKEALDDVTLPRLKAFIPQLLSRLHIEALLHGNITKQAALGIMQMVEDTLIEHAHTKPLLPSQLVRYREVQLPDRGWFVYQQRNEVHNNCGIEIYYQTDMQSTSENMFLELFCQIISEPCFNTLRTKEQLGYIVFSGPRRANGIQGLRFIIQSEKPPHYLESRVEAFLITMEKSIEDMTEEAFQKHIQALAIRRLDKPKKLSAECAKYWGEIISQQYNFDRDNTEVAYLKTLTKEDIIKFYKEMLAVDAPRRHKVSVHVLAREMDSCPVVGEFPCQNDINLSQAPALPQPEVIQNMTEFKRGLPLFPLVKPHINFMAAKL
As to the kind of experiment: Dose Response: Fluorescence polarization-based cell-based high throughput dose response assay for inhibitors of insulin-degrading enzyme (IDE). [Related pubchem assays: 434962 (Primary screen (IDE inhibitors in singlicate)), 449730 (Counterscreen (Cytotoxicity in triplicate)), 435028 (Confirmation (IDE inhibitors in triplicate)), 434984 (Summary …. It counts as functional.

Test [3] in a line: Counterscreen for IDE inhibitors: Luminescence-based cell-based high throughput dose response assay to identify compounds that are cytotoxic to HEK cells. [Related pubchem assays: 434962 (Primary screen (IDE inhibitors in singlicate)), 449730 (Counterscreen (Cytotoxicity in triplicate)), 435028 (Confirmation (IDE inhibitors in triplicate)) …. It counts as functional. As to conditions: HEK293.

In another test the target is NS3 (Hepatitis C virus, UniProt A3EZJ3). Kind of test: PubChem AID 2173. Set-up: species or system Hepacivirus hominis.
Chain of NS3 (A3EZJ3 whole entry): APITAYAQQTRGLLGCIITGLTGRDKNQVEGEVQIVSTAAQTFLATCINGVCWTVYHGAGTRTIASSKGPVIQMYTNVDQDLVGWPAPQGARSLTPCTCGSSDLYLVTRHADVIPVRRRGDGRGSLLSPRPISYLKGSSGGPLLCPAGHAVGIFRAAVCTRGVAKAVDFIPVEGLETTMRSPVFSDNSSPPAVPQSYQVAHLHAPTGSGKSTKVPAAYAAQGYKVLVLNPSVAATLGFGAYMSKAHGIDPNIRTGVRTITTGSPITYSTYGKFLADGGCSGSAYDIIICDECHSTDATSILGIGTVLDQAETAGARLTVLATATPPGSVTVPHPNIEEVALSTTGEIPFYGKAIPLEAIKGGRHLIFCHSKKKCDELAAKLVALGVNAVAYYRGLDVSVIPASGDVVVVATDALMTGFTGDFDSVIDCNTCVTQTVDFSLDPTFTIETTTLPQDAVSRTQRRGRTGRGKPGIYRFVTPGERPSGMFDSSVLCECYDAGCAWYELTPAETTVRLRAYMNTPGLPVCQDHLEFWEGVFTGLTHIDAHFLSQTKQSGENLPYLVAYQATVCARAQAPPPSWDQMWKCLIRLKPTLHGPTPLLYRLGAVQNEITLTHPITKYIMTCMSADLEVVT
The next test has as its target Large T antigen (Simian virus 40, UniProt P03070). It counts as functional, Betapolyomavirus macacae.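 Also: Confirmatory-stage PubChem screen for compounds that inhibit SV40 T antigen.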
Test [4] is described as follows: LGR2 antagonists, dose response, cell-based, HEK293, CRE-luciferase reporter, cherry pick, set 2 (AID 743343).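 Also: transfected cells were stimulated with diluted bursicon conditioned medium after compound addition.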 It counts as functional. Background: In a reporter assay the amount or activity of a reporter protein is the signal.
Test [5] is described as follows: A549 cell cytotoxicity, dose response, cytotoxicity control, plate reader, cherry-pick, antagonist series (AID 743412). It counts as functional, cell-based.
Test [6] can be described thus: MC4R antagonists, dose response, counter-screen for LGR2 antagonist project, cell-based, plate reader, cherry pick (AID 743444).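 Also: transfected HEK 293 cells stimulated with alpha-MSH peptide; potency of inhibitors of the alpha-MSH evoked signal.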 It counts as functional. On the technique in general: Counterscreens check selectivity or assay interference.
Test [7] is described as follows: HepG2 cell cytotoxicity, dose response, cytotoxicity control, plate reader, cherry-pick, antagonist series (AID 743416). It counts as functional, cell-based.
The nature of test [8]: Luminescence-based counterscreen assay for KLF5 inhibitors: dose response cell-based high throughput screening assay to identify cytotoxic compounds using the IEC-6 intestinal epithelial cell line. [Related pubchem assays: 1700 (Primary screen.), 1834 (Confirmation screen.), 1858 (Summary AID.), 1905 (Counterscreen.)]. It counts as functional.
In test [9] the target is Glyceraldehyde-3-phosphate dehydrogenase (Homo sapiens, UniProt P04406).
Chain of Glyceraldehyde-3-phosphate dehydrogenase (P04406 whole entry): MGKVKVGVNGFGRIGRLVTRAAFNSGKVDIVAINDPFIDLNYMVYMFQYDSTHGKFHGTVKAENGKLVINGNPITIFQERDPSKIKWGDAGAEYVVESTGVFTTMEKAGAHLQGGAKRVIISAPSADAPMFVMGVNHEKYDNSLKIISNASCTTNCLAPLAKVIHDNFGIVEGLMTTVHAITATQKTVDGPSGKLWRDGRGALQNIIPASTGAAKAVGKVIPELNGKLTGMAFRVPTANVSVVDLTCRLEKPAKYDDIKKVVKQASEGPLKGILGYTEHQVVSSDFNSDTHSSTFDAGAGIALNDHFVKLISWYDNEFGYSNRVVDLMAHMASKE
Test [10] concerns the target T4, Dual specificity protein phosphatase 6 (Rattus norvegicus, UniProt Q64346).
T4 sequence (Q64346 whole entry): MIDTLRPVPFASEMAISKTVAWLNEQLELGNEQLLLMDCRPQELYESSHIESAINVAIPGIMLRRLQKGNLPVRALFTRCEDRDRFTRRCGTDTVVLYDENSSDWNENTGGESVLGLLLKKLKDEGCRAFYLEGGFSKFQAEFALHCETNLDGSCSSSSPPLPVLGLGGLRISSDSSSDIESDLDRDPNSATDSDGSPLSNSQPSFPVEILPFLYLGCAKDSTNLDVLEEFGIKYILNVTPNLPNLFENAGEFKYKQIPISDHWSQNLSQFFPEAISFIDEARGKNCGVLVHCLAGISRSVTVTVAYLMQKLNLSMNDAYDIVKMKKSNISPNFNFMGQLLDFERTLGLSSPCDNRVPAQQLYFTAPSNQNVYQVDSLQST

Test [11] deals with T5, Tyrosine-protein phosphatase non-receptor type 7 (Homo sapiens, UniProt P35236).
T5 sequence (P35236 whole entry): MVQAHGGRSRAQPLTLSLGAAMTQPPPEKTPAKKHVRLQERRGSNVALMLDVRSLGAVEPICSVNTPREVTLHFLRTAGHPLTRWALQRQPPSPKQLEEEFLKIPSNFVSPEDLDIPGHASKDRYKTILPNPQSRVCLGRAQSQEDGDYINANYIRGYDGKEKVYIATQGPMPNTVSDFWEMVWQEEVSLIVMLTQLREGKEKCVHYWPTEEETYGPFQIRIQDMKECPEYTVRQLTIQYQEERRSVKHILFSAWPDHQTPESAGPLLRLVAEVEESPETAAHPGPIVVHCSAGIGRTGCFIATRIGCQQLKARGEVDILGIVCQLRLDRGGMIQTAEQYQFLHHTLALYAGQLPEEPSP
It counts as functional.

The target in test [12] is Heat shock cognate 71 kDa protein (Homo sapiens, UniProt P11142). Kind of test: In Vitro Hsc70 Dose Response Fluorescence Polarization Assay. [Related pubchem assays: 1072 ]. In general terms: Fluorescence polarisation rises when a labelled molecule tumbles more slowly, as on binding a larger partner.
Chain of Heat shock cognate 71 kDa protein (P11142 whole entry): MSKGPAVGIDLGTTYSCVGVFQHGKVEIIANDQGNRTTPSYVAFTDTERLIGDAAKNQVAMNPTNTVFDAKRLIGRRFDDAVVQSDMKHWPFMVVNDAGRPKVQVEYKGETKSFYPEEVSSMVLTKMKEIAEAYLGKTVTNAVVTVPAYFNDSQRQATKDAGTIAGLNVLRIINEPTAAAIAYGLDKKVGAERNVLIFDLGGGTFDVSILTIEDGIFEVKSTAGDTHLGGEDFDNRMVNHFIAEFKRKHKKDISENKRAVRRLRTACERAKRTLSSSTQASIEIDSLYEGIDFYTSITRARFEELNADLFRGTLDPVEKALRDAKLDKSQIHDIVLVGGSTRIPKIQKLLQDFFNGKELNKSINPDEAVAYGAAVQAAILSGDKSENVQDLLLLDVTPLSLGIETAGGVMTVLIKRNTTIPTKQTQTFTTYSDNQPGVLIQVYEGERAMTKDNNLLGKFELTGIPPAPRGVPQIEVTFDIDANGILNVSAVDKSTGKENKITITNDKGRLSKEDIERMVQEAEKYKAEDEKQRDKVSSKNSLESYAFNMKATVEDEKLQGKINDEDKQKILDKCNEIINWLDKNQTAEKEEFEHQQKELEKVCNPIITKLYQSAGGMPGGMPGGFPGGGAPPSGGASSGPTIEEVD
In test [13] the target is T4, Dual specificity protein phosphatase 6. It counts as functional.
In test [14] the target is Heat shock 70 kDa protein 1A (Homo sapiens, UniProt P0DMV8). As to the kind of experiment: Hsp70 inhibitors, SAR follow-up, biochemical, fluorescence polarization (AID 1072).
Chain of Heat shock 70 kDa protein 1A (P0DMV8 whole entry): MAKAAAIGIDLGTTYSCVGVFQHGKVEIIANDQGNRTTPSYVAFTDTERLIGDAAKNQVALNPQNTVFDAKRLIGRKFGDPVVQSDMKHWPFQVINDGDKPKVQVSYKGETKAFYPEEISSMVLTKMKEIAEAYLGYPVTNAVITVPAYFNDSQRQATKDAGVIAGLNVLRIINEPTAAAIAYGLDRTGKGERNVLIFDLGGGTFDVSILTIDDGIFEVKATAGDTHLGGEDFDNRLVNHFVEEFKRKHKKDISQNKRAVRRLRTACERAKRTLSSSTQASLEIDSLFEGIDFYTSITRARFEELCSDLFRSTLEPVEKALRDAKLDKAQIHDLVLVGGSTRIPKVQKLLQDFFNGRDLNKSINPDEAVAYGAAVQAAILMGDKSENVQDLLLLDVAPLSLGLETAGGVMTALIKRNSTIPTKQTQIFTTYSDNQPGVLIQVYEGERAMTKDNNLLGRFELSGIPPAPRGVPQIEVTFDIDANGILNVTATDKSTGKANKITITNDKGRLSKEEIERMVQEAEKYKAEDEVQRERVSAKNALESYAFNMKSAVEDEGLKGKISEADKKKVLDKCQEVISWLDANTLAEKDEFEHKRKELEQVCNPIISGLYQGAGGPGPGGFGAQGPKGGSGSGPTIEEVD

Chain of Large T antigen (P03070 whole entry): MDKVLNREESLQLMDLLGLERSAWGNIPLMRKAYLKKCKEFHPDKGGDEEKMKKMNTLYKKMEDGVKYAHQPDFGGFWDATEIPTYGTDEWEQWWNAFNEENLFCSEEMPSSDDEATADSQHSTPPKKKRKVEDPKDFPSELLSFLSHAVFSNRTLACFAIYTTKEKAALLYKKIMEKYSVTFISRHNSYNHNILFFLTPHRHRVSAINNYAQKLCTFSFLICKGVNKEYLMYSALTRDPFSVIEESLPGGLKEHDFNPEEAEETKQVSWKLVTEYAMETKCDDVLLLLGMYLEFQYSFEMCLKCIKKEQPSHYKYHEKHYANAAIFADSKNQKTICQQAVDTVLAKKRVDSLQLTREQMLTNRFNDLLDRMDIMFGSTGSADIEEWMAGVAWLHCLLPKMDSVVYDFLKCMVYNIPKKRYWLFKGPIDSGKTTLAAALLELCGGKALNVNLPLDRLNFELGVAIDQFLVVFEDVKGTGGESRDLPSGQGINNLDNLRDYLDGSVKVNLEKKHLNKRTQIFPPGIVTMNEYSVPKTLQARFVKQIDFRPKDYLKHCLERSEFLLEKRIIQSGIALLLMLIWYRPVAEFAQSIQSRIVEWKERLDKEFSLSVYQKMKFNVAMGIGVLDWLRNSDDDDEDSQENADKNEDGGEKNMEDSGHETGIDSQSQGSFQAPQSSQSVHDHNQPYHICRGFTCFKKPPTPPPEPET

A word on the EC50: it is the concentration at which the effect is half-maximal. As usually defined, the IC50 is the concentration needed to halve the response being measured. Consider `Cc1c(N2C(=O)/C(=C\c3ccc(N(C)C)cc3)N(C)C2=S)c(=O)n(-c2ccccc2)n1C`, for which the EC50 in [1] is > 100 µM (active). Also, the IC50 in test [2] was 74.4 µM (active); on Protein skinhead-1, 57.2 µM (inactive); against Insulin-degrading enzyme it was 13.9 µM (not active); in test [3] it was 37.9 µM (not active).
Turning to `O=C1NC(=O)N(c2ccccc2)C(=O)/C1=C\c1ccc([N+](=O)[O-])s1`, the IC50 against NS3 is 15.7 µM (not active); on Large T antigen, 42.1 µM (active).
Broadly, the AC50 is the concentration at which the activity in the assay is half-maximal. For `COc1ccc(Cl)cc1C(=O)Nc1nc2ccccc2[nH]1`, the AC50 was 2.05 µM (active) in test [4], > 52 µM (inactive) in [5], 2.46 µM (active) in [6] and > 52 µM (inactive) in test [7]. Besides, the IC50 in [8] is given as > 39.8 µM (not active).
Consider `O=C(O)C1Nc2cc(Cl)cc(Cl)c2C2C=CCC12` (stereo not drawn), for which the IC50 is 62.7 µM (active) in test [9]; 61.6 µM (active) in [10]; > 100 µM (not active) in [11]; 53 µM (active) in test [12]; > 100 µM (inactive) in test [13]; 18.1 µM (active) in test [14].
